# Measurements reported in paper PMC3775972 (Wound repair and regeneration : official publication of the …, 2013).
# What was measured:
# [1] = test system: hybridoma mouse cells; conditions: nM concentrations; cited from earlier work
# [2] = test system: T-lymphoblastic leukaemia CEM cells; conditions: read-out: IC50, cytotoxicity; cited from earlier work
# [3] = test system: TGF-β mRNA; assay: Real time PCR of wound tissue, TGF-β; type: in vivo; conditions: d 10 post-wounding, 10 μg/mouse topical daily
# [4] = test system: ICAM-1 mRNA; assay: Real time PCR of wound tissue, ICAM-1; type: in vivo; conditions: d 10 post-wounding, 10 μg/mouse topical daily
# [5] = test system: TNF-α mRNA; assay: Real time PCR of wound tissue, TNF-α; type: in vivo; conditions: d 10 post-wounding, 10 μg/mouse topical daily
# [6] = test system: RPMI 8226 cancer cells; conditions: read-out: IC50, cytotoxicity; RPMI 8226 cells; cited from earlier work
# [7] = Body weight and food intake after wounding; type: in vivo; conditions: 10 μg/mouse topically daily, d 2 post-wounding
# [8] = test system: 3T3 mouse fibroblasts; assay: Fibroblast proliferation assay; type: cell-based; conditions: 24 h, BrdU, mean ± SEM
# [9] = test system: HOS cancer cell line; conditions: cited from earlier work
# [10] = test system: 3T3 mouse fibroblasts; assay: Fibroblast viability / cytotoxicity assay; type: cell-based; conditions: for IC50: read-out: Cell cytotoxicity, IC, MTT, 0.3–30 μM for 4 h
# [11] = test system: A549 cancer cell line; conditions: cited from earlier work
# [12] = test system: phospho-Akt1(Ser473); assay: Western blot of edge-of-the-wound tissue, Akt phosphorylation; type: in vivo; conditions: 10 μg/mouse topical daily
# [13] = test system: 3T3 mouse fibroblasts; assay: Scratch wound closure; type: cell-based; conditions: for Scratch wound closure at 5 μM, %: 12 h incubation, mean ± SEM; for Fibroblast migration / scratch wound closure activity (in words): dose dependence at 0.1–10 μM, 12 h
# [14] = test system: K562 cancer cell line; conditions: cited from earlier work
# [15] = test system: healthy rats; conditions: oral administration, associated with activation of Akt; cited from earlier work
# [16] = test system: HeLa cancer cell line; conditions: cited from earlier work
# [17] = test system: primary mouse keratinocytes; assay: Primary keratinocyte proliferation assay; type: cell-based; conditions: for Proliferation of primary keratinocytes: versus vehicle (ethanol); for Proliferation of primary keratinocytes, dose dependence: respective doses, Alamar Blue
# [18] = test system: macrophage cell culture; assay: LPS-stimulated inflammation in macrophage cell culture; type: cell-based; conditions: preliminary data, not shown
# [19] = test system: full thickness dermal wound in C57BL/6J mice; assay: Mouse model of cutaneous wound healing; type: in vivo
# [20] = Fibroblast viability / cytotoxicity assay; type: cell-based, mouse; conditions: mouse, NIH 3T3 fibroblasts (ATCC CCL-92)
# [21] = test system: human cancer cell lines; conditions: below 50 μM; cited from earlier work
# [22] = test system: 3T3 mouse fibroblasts; conditions: PDGF 2 nM, reference treatment; cited from earlier work
compound,measurement,setting,value
CC(C)[C@@H](C)[C@@H](O)[C@H](O)[C@@H](C)[C@H]1CC[C@H]2[C@@H]3COC(=O)[C@H]4C[C@H](O)[C@H](O)C[C@]4(C)[C@H]3CC[C@]12C [24-epibrassinolide],Proportions of viable hybridoma mouse cells,[1],increased
"CC[C@@H](C(C)C)[C@@H](O)[C@H](O)[C@@H](C)[C@H]1CC[C@H]2[C@@H]3CC(=O)[C@H]4C[C@H](O)[C@H](O)C[C@]4(C)[C@H]3CC[C@]12C [(22R, 23R)-homocastasterone, reference compound]",IC50,[2],13 µM
"CCNC(=O)[C@H]1O[C@@H](n2cnc3c(N)nc(NCCc4ccc(CCC(=O)O)cc4)nc32)[C@H](O)[C@@H]1O [CGS-21680, reference compound]",TGF-β mRNA level in wound tissue,[3],no effect
same,ICAM-1 mRNA level in wound tissue,[4],no effect
same,TNF-α mRNA level in wound tissue,[5],remarkable suppression
"CC[C@@H](C(C)C)[C@H](O)[C@@H](O)[C@@H](C)[C@H]1CC[C@H]2[C@@H]3COC(=O)[C@H]4C[C@H](O)[C@H](O)C[C@]4(C)[C@H]3CC[C@]12C [Compound 1, (22S, 23S, 24S)-2α, 3 α, 22,23-tetrahydroxy-24 ethyl-^2-homo-7-oxo-5α-cholestane-6-one]",IC50,[6],~30 µM
same,IC50,[2],~30 µM
same,Body weight loss associated with injury,[7],tendency for HB to reduce weight loss
same,TGF-β mRNA level in wound tissue,[3],weak effect
same,"Cell proliferation at 5 μM, % of control",[8],37.7 ± 3.4 % of control
same,ICAM-1 mRNA level in wound tissue,[4],significant suppression
same,Cytotoxicity (in words),[9],no cytotoxicity
same,Cytotoxicity (in words),"[10]; at or up to 30 μM, the highest concentration tested",no cytotoxicity
same,IC50,[10],> 30 µM
same,Cytotoxicity (in words),[11],no cytotoxicity
same,Akt-1 phosphorylation in edge-of-the-wound tissue,[12],upregulation
same,"Scratch wound closure at 5 μM, %",[13],30 ± 4.2 %
same,"Scratch wound closure at 5 μM, %",[13]; listed as HB,30 ± 4.2%
same,Cytotoxicity (in words),[14],no cytotoxicity
same,Anabolic response,[15],selective anabolic response
same,Cytotoxicity (in words),[16],no cytotoxicity
same,Proliferation of primary keratinocytes,[17]; 3 μM,did not reach significance
same,Proliferation of primary keratinocytes,[17]; doses of 0.3 and 10 μM,significant increase
same,Effect on LPS-stimulated inflammation,[18],no pro- or anti-inflammatory effect
same,Cutaneous wound healing,"[19]; 10 μg topical per mouse per day for 10 d, versus vehicle",significantly improved
same,Increase in speed of wound closure relative to control mice,"[19]; d 4, percent of original wound size, 10 μg/mouse topical",2 fold
same,TNF-α mRNA level in wound tissue,[5],nearly complete downregulation
"CC[C@@H](C(C)C)[C@H](O)[C@@H](O)[C@@H](C)[C@H]1CC[C@H]2[C@@H]3CC(=O)[C@H]4C[C@H](O)[C@H](O)C[C@]4(C)[C@H]3CC[C@]12C [Compound 2, (22S, 23S, 24S)-2α, 3α, 22, 23-tetrahydroxy-24-ethyl-5α-cholestan-6-one]",IC50 at 4 h,[20],> 30 µM
same,"Scratch wound closure at 5 μM, %",[13],32.9 ± 4.1 %
same,Cytotoxicity (in words),[21],weak to no cytotoxicity
"CC[C@H](C(C)C)[C@H](O)[C@@H](O)[C@@H](C)[C@H]1CC[C@H]2[C@@H]3COC(=O)[C@H]4C[C@H](F)CC[C@]4(C)[C@H]3CC[C@]12C [Compound 3, (22S,23S,24R)-3α-fluoro-22,23-dihydroxy-24-ethyl-^2-homo-7-oxa-5 α-cholestan-6-one]",IC50,[10],~30 µM
same,"Scratch wound closure at 5 μM, %",[13],15.3 ± 2.6%
"CC[C@@H](C(C)C)[C@H](O)[C@@H](O)[C@@H](C)[C@H]1CC[C@H]2[C@@H]3CC(=O)[C@H]4C[C@H](F)CC[C@]4(C)[C@H]3CC[C@]12C [Compound 4, (22S,23S,24S)-3α-fluoro-22,23-dihydroxy-24-ethyl-5 α-cholestan-6-one]",IC50 at 4 h,[20],~30 µM
same,"Scratch wound closure at 5 μM, %",[13],27.7 ± 4.0 %
same,Fibroblast migration / scratch wound closure activity (in words),[13],high activity similar to HB
same,"Proliferation of primary keratinocytes, dose dependence",[17],dose-dependently decreased
"CC[C@@H](C(C)C)[C@H](O)[C@@H](O)[C@@H](C)[C@H]1CC[C@H]2[C@@H]3CNC(=O)[C@H]4C[C@H](O)[C@H](O)C[C@]4(C)[C@H]3CC[C@]12C [Compound 5, (22S,23S,24S)-2α,3α,22,23-tetrahydroxy-24-ethyl-^2-homo-7-aza-5α-cholestan-6-one]",IC50,[10],12.5 µM
same,"Scratch wound closure at 5 μM, %",[13],13.0 ± 0.7%
same,Fibroblast migration / scratch wound closure activity (in words),[13],no effect
"CC[C@@H](C(C)C)[C@H](O)[C@@H](O)[C@@H](C)[C@H]1CC[C@H]2[C@@H]3CC(=O)N[C@H]4C[C@H](O)[C@H](O)C[C@]4(C)[C@H]3CC[C@]12C [Compound 6, (22S,23S,24S)-2α,3α,22,23-tetrahydroxy-24-ethyl-^2-homo-6-aza-5α-cholestan-7-one]",IC50,[10],> 30 µM
same,"Scratch wound closure at 5 μM, %",[13],30.5 ± 4.2 %
same,Fibroblast migration / scratch wound closure activity (in words),[13],highest activity at 3 μM
same,"Proliferation of primary keratinocytes, dose dependence",[17],dose-dependently decreased
"CC(C)[C@H](C)[C@H](O)[C@@H](O)[C@@H](C)[C@H]1CC[C@H]2[C@@H]3COC(=O)[C@H]4C[C@@H](O)[C@H](O)C[C@]4(C)[C@H]3CC[C@]12C [Compound 8, (22S,23S,24R)-2α,3α,22,23-tetrahydroxy-24-methyl-^2-homo-7-oxa-5α-cholestan-6-one]","Cell proliferation at 5 μM, % of control",[8],31.9 ± 5.3 % of control
same,IC50,[10],> 30 µM
same,"Scratch wound closure at 5 μM, %",[13],13.2 ± 1.5%
"CC(C)[C@@H](C)[C@@H](O)[C@H](O)[C@@H](C)[C@H]1CC[C@H]2[C@@H]3COC(=O)[C@H]4C[C@H](O)[C@H](O)C[C@]4(C)[C@H]3CC[C@]12C [Compound 9, (22R,23R,24R)-2α,3α,22,23-tetrahydroxy-24-methyl-^2-homo-7-oxa-5α-cholestan-6-one]","Cell proliferation at 5 μM, % of control",[8],31.0 ± 2.6 % of control
same,IC50,[10],> 30 µM
same,"Scratch wound closure at 5 μM, %",[13],8.1 ± 1.6%
PDGF,"Scratch wound closure, %",[22],64.8 ± 1.7 %
